pIC50: −log10 of the molar value. Values joined by “and” are separate entries in the source; they are usually repeats but may differ in a detail not shown here. Equal values may be shown once. Read-outs that look alike come from different tables or passages of the source.
How the values were obtained:
MDR1/P-gp = MDR1/P-gp (Homo sapiens, UniProt P08183); assay: Transporter inhibition using membrane vesicles; settings: for % PGP Uptake Activity: uptake of N-methyl quinidine by MDR1, single replicates
OATP1B1 = molecular target: T1, OATP1B1 (Homo sapiens, UniProt Q9Y6L6); assay: Transporter inhibition using transfected HEK293 cells
T1 sequence (Q9Y6L6 1-691): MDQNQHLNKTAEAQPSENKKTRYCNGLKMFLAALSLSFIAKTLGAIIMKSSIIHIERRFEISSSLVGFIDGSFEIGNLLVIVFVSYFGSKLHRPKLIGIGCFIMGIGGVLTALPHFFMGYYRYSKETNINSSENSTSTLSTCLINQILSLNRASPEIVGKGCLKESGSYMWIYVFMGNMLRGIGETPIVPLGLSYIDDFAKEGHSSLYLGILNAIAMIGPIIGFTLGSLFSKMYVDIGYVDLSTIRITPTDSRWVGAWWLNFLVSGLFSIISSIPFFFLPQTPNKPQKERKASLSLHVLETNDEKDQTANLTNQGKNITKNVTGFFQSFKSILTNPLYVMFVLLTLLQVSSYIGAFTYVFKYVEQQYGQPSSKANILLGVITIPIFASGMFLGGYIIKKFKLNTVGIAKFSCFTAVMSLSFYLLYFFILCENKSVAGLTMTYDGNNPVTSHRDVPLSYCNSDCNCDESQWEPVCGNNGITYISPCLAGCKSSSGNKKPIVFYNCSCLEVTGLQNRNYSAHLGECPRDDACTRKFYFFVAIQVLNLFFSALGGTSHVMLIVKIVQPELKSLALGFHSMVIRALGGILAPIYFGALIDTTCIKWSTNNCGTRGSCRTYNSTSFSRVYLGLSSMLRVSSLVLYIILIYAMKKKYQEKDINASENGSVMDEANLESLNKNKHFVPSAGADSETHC

BCRP = BCRP (Homo sapiens, UniProt Q9UNQ0); assay: Transporter inhibition using membrane vesicles; settings: IC50, Rosuvastatin (0.2 µM)
MATE1 = molecular target: T2, MATE1 (Homo sapiens, UniProt Q96FL8); assay: Transporter inhibition using transfected HEK293 cells
T2 sequence (Q96FL8 1-570): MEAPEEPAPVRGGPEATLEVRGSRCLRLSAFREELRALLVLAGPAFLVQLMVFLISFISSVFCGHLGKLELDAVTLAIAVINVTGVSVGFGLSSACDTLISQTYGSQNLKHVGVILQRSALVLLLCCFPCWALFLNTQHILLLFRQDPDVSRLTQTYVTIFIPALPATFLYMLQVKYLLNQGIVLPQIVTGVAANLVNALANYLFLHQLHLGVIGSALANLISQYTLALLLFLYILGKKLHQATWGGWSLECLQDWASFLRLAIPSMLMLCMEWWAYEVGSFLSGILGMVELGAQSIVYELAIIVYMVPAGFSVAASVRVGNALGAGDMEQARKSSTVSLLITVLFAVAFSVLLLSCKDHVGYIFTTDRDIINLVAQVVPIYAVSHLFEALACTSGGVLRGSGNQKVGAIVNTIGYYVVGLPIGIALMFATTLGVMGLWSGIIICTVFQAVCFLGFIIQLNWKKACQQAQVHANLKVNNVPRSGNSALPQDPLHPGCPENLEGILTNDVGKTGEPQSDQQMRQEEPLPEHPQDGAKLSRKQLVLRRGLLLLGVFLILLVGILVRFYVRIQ

CYP3A4/5 = assay: in vitro; settings: human, microsomes, pH 7.4, Percent of Control Activity
OATP1B3 = molecular target: T3, OATP1B3 (Homo sapiens, UniProt Q9NPD5); assay: Transporter inhibition using transfected HEK293 cells
T3 sequence (Q9NPD5 1-702): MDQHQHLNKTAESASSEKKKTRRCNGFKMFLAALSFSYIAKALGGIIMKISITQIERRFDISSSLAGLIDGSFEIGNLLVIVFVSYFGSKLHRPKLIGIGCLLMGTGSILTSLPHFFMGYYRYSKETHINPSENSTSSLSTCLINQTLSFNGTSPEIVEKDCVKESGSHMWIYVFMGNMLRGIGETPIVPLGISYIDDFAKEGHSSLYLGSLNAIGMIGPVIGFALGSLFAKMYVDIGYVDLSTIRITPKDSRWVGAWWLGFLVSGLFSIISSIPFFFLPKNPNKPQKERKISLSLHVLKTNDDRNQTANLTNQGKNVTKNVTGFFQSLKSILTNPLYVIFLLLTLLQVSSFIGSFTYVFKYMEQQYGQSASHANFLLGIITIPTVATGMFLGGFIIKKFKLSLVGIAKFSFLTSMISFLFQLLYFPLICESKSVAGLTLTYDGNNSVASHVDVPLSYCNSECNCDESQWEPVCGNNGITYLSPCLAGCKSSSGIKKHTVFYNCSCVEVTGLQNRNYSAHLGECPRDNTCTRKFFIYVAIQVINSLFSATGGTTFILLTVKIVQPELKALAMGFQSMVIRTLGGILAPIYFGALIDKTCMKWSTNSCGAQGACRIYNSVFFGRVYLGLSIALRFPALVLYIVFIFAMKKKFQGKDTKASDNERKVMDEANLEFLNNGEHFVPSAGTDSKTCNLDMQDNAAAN

[1] = CYP 3A4/5 (mdz), 30-Minute Preincubation
[2] = CYP 3A4/5 (mdz), Zero-Minute Preincubation
[3] = CYP 3A4/5 (tst), 30-Minute Preincubation
[4] = CYP 3A4/5 (tst), Zero-Minute Preincubation

Chain of MDR1/P-gp (P08183 whole entry): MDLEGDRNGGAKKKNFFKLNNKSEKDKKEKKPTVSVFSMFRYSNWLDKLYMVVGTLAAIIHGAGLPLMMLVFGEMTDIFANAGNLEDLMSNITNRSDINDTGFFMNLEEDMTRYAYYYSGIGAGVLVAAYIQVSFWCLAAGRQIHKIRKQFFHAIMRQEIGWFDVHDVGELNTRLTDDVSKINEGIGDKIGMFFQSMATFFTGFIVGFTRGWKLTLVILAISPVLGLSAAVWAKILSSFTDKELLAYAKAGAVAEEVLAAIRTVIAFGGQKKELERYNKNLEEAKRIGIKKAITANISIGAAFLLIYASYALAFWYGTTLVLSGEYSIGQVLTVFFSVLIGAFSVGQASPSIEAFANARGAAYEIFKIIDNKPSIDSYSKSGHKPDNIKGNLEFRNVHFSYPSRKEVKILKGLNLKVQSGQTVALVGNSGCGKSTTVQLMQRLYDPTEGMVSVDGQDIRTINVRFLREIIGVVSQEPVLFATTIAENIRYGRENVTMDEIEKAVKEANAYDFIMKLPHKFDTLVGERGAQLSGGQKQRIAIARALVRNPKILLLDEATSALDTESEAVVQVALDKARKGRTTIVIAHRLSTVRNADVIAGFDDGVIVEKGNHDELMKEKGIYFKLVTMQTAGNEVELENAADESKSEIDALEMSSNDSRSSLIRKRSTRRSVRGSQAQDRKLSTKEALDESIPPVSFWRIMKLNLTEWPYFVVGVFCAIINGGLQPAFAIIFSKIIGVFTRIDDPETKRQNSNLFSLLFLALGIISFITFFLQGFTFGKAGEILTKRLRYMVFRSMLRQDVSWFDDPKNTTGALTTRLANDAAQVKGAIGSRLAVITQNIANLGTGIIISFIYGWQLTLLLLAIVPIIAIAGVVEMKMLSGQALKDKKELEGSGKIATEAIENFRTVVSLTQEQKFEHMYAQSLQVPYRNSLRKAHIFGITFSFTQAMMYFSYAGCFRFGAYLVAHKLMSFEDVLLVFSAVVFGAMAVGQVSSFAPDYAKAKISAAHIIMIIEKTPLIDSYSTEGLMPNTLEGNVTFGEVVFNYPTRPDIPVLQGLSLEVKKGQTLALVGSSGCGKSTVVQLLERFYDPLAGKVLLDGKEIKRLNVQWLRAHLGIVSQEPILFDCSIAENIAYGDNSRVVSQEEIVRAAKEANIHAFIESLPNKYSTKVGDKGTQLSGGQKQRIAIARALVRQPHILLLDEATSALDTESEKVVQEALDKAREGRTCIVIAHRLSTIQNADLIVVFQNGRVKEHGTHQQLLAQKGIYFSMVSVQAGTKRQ
Chain of BCRP (Q9UNQ0 whole entry): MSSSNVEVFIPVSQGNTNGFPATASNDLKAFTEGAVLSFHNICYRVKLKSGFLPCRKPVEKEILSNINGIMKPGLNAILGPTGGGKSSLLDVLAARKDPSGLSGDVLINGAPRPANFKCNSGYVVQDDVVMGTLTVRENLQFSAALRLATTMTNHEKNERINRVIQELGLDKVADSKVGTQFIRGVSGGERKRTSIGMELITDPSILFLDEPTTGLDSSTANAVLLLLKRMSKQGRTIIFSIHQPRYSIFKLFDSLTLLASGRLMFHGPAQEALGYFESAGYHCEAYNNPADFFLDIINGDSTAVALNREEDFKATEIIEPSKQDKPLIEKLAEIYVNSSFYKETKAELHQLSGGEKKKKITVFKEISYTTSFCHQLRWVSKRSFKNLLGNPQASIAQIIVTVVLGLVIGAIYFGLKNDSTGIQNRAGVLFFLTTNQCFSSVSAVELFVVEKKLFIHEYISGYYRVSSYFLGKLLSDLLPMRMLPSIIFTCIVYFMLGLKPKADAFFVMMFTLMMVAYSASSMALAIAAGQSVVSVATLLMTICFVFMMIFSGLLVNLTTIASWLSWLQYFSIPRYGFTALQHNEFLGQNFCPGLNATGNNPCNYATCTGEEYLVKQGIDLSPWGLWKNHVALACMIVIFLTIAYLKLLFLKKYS

COc1cccc2[nH]c(C(=O)N[C@@H](CC(C)C)C(=O)N[C@@H](C[C@@H]3CCNC3=O)C(=O)CO)cc12 [PF-00835231]
CC50 (in vitro; African green monkey, CC50): > 100 µM | CC50 (in vitro; African green monkey, CC50, n=1): > 50 µM | CC50 (in vitro; monkey, CC50): > 50 µM | CC50 (in vitro; monkey, CC50, n=1): > 50 µM | CC50 (in vitro; monkey, CC50 GeoMean (95% CI)): > 100 µM | pIC50 (MDR1/P-gp; IC50, N-methyl quinidine (0.2 µM)): 4.18 | IC50 at […] (MDR1/P-gp; human, human MDR1 (P-gp) membrane vesicles, pH 7.4, probe N-methyl quinidine (0.2 µM), IC50, N-methyl quinidine (0.2 µM)): > 20 µM | % PGP Uptake Activity (MDR1/P-gp; inhibitor concentration 0.0732 uM): 93.3145% and 114.451% and 106.12% | % PGP Uptake Activity (MDR1/P-gp; inhibitor concentration 0.2930 uM): 78.5035% and 118.154% and 104.268% | % PGP Uptake Activity (MDR1/P-gp; inhibitor concentration 1.1719 uM): 118.617% and 114.451% | % PGP Uptake Activity (MDR1/P-gp; inhibitor concentration 4.6875 uM): 113.525% and 107.354% and 108.897% | % PGP Uptake Activity (MDR1/P-gp; inhibitor concentration 18.7500 uM): 94.703% and 96.0915% and 89.1489% | % PGP Uptake Activity (MDR1/P-gp; inhibitor concentration 300.0000 uM): 17.0995% and 14.0139% and 11.9619% | pIC50 (OATP1B1): 4.52 | pIC50 (OATP1B1; human, HEK293 cells stably transfected with OATP1B1, pH 7.4, probe rosuvastatin (0.5 µM)): < 4.70 | pIC50 (BCRP): 4.71 | pIC50 (MATE1; IC50, [14C]Metformin (20 µM)): 3.76 | pIC50 (MATE1; human, pH 7.4, IC50, [14C]Metformin (20 µM)): < 4.70 | activity at 0.1 µM (CYP3A4/5; CYP 3A4/5 (mdz), 0.1 µM, 30-Minute Preincubation): 97.8% | activity at 0.1 µM (CYP3A4/5; CYP 3A4/5 (mdz), 0.1 µM, Zero-Minute Preincubation): 95.2% | activity at 0.214 µM (CYP3A4/5; CYP 3A4/5 (mdz), 0.214 µM, 30-Minute Preincubation): 121% | activity at 0.214 µM (CYP3A4/5; CYP 3A4/5 (mdz), 0.214 µM, Zero-Minute Preincubation): 98.7% | activity at 0.979 µM (CYP3A4/5; CYP 3A4/5 (mdz), 0.979 µM, 30-Minute Preincubation): 99.8% | activity at 0.979 µM (CYP3A4/5; CYP 3A4/5 (mdz), 0.979 µM, Zero-Minute Preincubation): 95.5% | activity at 2.09 µM (CYP3A4/5; CYP 3A4/5 (mdz), 2.09 µM, 30-Minute Preincubation): 99.7% | activity at 2.09 µM (CYP3A4/5; CYP 3A4/5 (mdz), 2.09 µM, Zero-Minute Preincubation): 97.6% | activity at 4.48 µM (CYP3A4/5; [1]): 101% | activity at 4.48 µM (CYP3A4/5; [2]): 110% | activity at 20.5 µM (CYP3A4/5; [1]): 88.2% | activity at 20.5 µM (CYP3A4/5; [2]): 108% | activity at 43.8 µM (CYP3A4/5; [1]): 77.3% | activity at 43.8 µM (CYP3A4/5; [2]): 101% | activity at 93.5 µM (CYP3A4/5; [1]): 64.9% | activity at 93.5 µM (CYP3A4/5; [2]): 107% | activity at 200 µM (CYP3A4/5; [2]): 104% | activity at 30 min, 0.1 µM (CYP3A4/5; CYP 3A4/5 (tst), 0.1 µM, 30-Minute Preincubation): 87.1% | activity at 0.1 µM (CYP3A4/5; CYP 3A4/5 (tst), 0.1 µM, Zero-Minute Preincubation): 103% | activity at 0 min, 0.214 µM (CYP3A4/5; CYP 3A4/5 (tst), 0.214 µM, Zero-Minute Preincubation): 102% | activity at 30 min, 0.979 µM (CYP3A4/5; CYP 3A4/5 (tst), 0.979 µM, 30-Minute Preincubation): 97.6% | activity at 0 min, 2.09 µM (CYP3A4/5; CYP 3A4/5 (tst), 2.09 µM, Zero-Minute Preincubation): 98.1% | activity at 4.48 µM (CYP3A4/5; [3]): 101% | activity at 20.5 µM (CYP3A4/5; [3]): 83.2% | activity at 20.5 µM (CYP3A4/5; [4]): 75.8% | activity at 43.8 µM (CYP3A4/5; [3]): 55.5% | activity at 43.8 µM (CYP3A4/5; [4]): 79.9% | activity at 93.5 µM (CYP3A4/5; [4]): 74.9% | activity at 200 µM (CYP3A4/5; [3]): 24.3% | pIC50 (OATP1B3): 4.29 | pIC50 (OATP1B3; human, HEK293 cells stably transfected with OATP1B3, pH 7.4, probe rosuvastatin (0.5 µM)): < 4.70
